Laboratory results from patent US20160338989A1, “SOLID PHARMACEUTICAL COMPOSITIONS CONTAINING BENZOFURAN DERIVATIVES” (SANOFI, priority 1997, published 2016).
Where a name gives a salt, the structure may show the parent alone.

Key:
[1] = Dissolution at pH=4 and dilution to 1/10 with buffer of pH=7; assay type: physicochemical
Description: Thus, it is possible to dissolve 400 mg of dronedarone hydrochloride in 200 ml of aqueous medium buffered to pH=4 (aqueous 0.1 M NaH2PO4 solution).
On the other hand, in this medium diluted to 1/10 with an aqueous solution buffered to pH=7 (aqueous 0.1 M Na2HPO4 solution), dronedarone hydro-chloride precipitates (pH of the final medium: 6.7).

physchem = details: aqueous medium
[2] = Bioavailability after intake of food, man; assay type: in vivo; details: in particular fats
Source text: (§1) This behaviour in intestinal medium probably makes it possible to explain in vivo the low bio-availability of dronedarone hydrochloride and the differences observed after administration with or without food, since it has been observed that the bio-availability of dronedarone hydrochloride in dogs and in man is increased after the intake of food, in particular fats, which can greatly modify the precipitation kinetics of this active principle and also help to place it in emulsion form.

[3] = Behaviour in the presence of bile salts; assay type: physicochemical; details: bile salts such as sodium taurocholate
[4] = Bioavailability after intake of food, dogs; assay type: in vivo; details: in particular fats
Source text: as §1

[5] = Test of maintenance in solution at pH=6.7, active principle alone; assay type: physicochemical; details: absence of surfactant; pH 6.7, 2 hours at 37° C.
Description: Solutions were prepared containing 2 mg/ml of dronedarone. hydrochloride in hydrogenphosphate (NaH2PO4 buffered medium at pH=4.5 for 2 hours at 37° C. in the presence or absence of x % of nonionic hydrophilic surfactant to be studied, calculated on a weight basis relative to the active principle in base form.
This solution was then diluted to 1/10th in a neutral phosphate medium (Na2HPO4+NaH2PO4), the pH of the final solution being 6.7.
After 2 hours at 37° C., the solution was filtered through an Acrodisc brand 5 μm filter and the active principle in solution was assayed by UV spectrometry.

behaviour on dilution to 1/10 with aqueous solution buffered to pH=7 ([1]; 0.1 M Na2HPO4, pH of the final medium 6.7): precipitates
amount that can be dissolved in 200 ml of aqueous medium ([1]; buffered to pH=4 (aqueous 0.1 M NaH2PO4 solution)): 400 mg
solubility (physchem; aqueous buffer): 1000 to 2000 µg/mL
solubility (physchem; pH 7, aqueous buffer): 10 µg/mL
bioavailability after the intake of food [2]: increased
behaviour in the presence of bile salts [3]: precipitates
bioavailability after the intake of food [4]: increased
% of dronedarone hydrochloride in solution [5]: 5%
SMILES: CCCCc1oc2ccc(NS(C)(=O)=O)cc2c1C(=O)c1ccc(OCCCN(CCCC)CCCC)cc1 [dronedarone hydrochloride, 2-n-butyl-3-[4-(3-di-n-butyl-aminopropoxy)benzoyl]-5-methylsul-phonamidobenzofuran]
